{"source": "paper PMC7845544", "about": "(Frontiers in Pharmacology, 2021)", "key": {"[1]": {"conditions": "microsomes"}, "[2]": {"conditions": "microsomes", "remark": "listed apart in the source"}, "[3]": {"conditions": "mouse, microsomes"}, "[4]": {"target": "T1, hLH/CGR (Homo sapiens, UniProt P22888)", "T1 construct": "expressed in transfected cells", "T1 sequence (P22888 27-699)": "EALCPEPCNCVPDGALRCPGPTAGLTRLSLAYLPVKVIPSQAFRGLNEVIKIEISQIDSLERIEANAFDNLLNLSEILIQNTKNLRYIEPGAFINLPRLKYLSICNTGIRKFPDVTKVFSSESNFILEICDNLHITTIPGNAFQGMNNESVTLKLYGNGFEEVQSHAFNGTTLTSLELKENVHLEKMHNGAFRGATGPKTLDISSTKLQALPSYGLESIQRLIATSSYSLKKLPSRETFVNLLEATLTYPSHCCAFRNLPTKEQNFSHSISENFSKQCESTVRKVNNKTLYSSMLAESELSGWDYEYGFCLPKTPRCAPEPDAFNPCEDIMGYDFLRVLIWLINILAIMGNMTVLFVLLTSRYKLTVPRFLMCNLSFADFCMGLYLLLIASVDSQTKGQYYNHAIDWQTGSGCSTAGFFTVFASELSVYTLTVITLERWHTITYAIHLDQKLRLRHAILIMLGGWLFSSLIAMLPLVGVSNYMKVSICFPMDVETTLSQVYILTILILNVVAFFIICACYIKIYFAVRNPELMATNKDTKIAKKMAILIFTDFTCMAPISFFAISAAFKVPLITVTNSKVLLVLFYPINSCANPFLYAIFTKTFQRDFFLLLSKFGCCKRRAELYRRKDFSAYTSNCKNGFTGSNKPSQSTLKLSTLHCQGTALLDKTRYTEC", "test": "cAMP (HTRF) in CHO cells transfected with hLH/CGR", "type": "cell-based", "conditions": "for EC50: compounds in presence of EC20 ligand (Figure 1 legend); for EC50 / % Response, CHO-hLH/CGR: mean ± SEM; for % Response, CHO-hLH/CGR: maximal cAMP vs maximal response of hCG", "method": "(§1) Chinese hamster ovary (CHO) cells transfected with hFSHR, hLHR or hTSHR were grown as described previously ([Kelton et al., 1992]; [Persani et al., 1993]; [Yu et al., 2014]). In brief, CHO-hFSHR and CHO-hTSHR were maintained in DMEM/F12 + 10% FBS in T150 culture flasks. The cells were cultured until they reached 70–80% confluence (three days) and were then used for assays or passaged. CHO-hLHR ([van de Lagemaat et al., 2009]; [Sriraman et al., 2014]) was cultured in MEM alpha (++) +10% FBS and G418, and passaged every three days. CHO-hFSHR or −hLHR or −hTSR cells (2,500/well) were plated in 5 µL of phenol red free DMEM/F12 + 1% FBS in 384 well solid white low volume plates (Greiner 784075) by Multidrop. […] The plates were incubated at 37°C for 1 h. After the incubation period, cAMP was measured by HTRF® (homogeneous time-resolved fluorescence) assay (CisBio, Bedford, MA). In brief, conditioned media were incubated with cryptate-labeled cAMP antibody and d2-labeled cAMP in lysis buffer for 1 h. Free cAMP produced by cells competes with cAMP-d2 for binding to the anti-cAMP cryptate. An increase in cellular cAMP leads to a decrease in fluorescence resonance energy transfer, which is detectable as a decrease in the emission at 665 nm, measured by Envision fluorescence reader (PerkinElmer, Waltham, MA). The readout was calculated fluorescence ratio (665/620 nm). Values given in percent (%) indicate the percent response at a certain concentration of agonist relative to the maximum response of the protein ligand standard."}, "[5]": {"target": "T2, hFSHR (Homo sapiens, UniProt P23945)", "T2 construct": "expressed in transfected cells", "T2 sequence (P23945 18-695)": "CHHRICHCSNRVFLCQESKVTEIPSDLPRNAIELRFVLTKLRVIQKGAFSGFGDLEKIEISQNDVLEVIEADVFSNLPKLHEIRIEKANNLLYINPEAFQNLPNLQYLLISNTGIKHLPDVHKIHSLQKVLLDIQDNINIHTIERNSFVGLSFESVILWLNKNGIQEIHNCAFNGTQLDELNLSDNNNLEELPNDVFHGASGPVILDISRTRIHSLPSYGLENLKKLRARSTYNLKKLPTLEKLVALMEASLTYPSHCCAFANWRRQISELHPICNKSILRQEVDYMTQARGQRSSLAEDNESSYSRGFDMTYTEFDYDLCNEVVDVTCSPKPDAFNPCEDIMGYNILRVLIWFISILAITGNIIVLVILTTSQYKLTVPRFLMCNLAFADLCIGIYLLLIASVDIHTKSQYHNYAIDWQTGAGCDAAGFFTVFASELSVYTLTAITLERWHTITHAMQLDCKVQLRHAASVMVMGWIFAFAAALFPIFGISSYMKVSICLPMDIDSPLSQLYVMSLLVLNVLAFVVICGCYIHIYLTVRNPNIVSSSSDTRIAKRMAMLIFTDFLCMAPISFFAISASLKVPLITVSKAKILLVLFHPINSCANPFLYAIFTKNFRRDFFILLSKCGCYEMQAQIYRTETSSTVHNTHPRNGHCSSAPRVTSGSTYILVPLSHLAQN", "test": "cAMP (HTRF) in CHO cells transfected with hFSHR", "type": "cell-based", "conditions": "for EC50: compounds in presence of EC20 ligand (Figure 1 legend); for EC50 / % Response, CHO-hFSHR: mean ± SEM; for % Response, CHO-hFSHR: maximal cAMP vs maximal response of protein ligand FSH", "method": "as §1"}, "[6]": {"system": "rat Leydig cells", "test": "Testosterone production from rat primary Leydig cells", "type": "cell-based", "conditions": "3 h incubation", "method": "Testes were obtained from 21 day old male SD rats, decapsulated into DMEM/F12 media, placed into a spinner flask containing pre-warmed 25 ml digestion media (DMEM/F12 no phenol red + 1 mg/ml Collagenase), and stirred at 37°C in 5% CO2 incubator for 10–15 min ([Hedger et al., 1990]). The digestion supernatant was passed through a 70 um cell strainer into a 50 ml tube, and the digestion was stopped with 0.1% BSA + 0.1 mg/ml trypsin soybean inhibitor) in 50 ml. The digested cells were centrifuged at 800 rpm for 5 min, the supernatant discarded and the cell pellet resuspend in 1 ml assay buffer (DMEM/F12 no phenol red +0.1% BSA) per paired testes. The cells were counted and diluted to 5 × 10^6 cells/ml, and 50 ul of this cell suspension was added to each well of a 96-well plate. Testes obtained from five 21 day old rats generally yielded 1 × 10^8 cells. […] At the end of incubation, media was collected and testosterone measured by ELISA (EIA‐1559, DRG)."}, "[7]": {"target": "CYP3A4 (Homo sapiens, UniProt P08684)", "sequence (P08684 whole entry)": "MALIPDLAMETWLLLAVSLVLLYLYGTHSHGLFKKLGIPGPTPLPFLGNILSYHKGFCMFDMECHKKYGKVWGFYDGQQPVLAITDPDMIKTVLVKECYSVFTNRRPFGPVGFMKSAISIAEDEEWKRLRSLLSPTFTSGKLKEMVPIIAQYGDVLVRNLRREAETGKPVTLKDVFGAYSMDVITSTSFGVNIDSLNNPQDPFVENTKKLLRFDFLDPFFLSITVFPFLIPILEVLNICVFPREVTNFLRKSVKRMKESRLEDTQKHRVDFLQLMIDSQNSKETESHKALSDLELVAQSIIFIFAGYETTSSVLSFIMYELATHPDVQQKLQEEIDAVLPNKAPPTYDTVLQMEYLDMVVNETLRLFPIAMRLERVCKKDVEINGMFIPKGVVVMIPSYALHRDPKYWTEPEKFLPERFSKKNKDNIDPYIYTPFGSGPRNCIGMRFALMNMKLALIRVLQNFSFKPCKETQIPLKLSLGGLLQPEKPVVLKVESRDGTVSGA", "test": "CYP time dependent inhibition", "type": "in vitro ADME"}, "[8]": {"system": "human granulosa cells", "test": "Estradiol production from pooled human granulosa-lutein cells (Boston IVF)", "type": "cell-based", "conditions": "for EC50: pooled granulosa-lutein cells from two patients (Figure 4A), read-out: EC50, 17β-estradiol production; for maximal 17β-estradiol response: three patients (Figure 4B)", "method": "Human granulosa cells were prepared from the spent follicular fluid of women undergoing IVF treatment at Boston IVF Center (Waltham, MA, United States) and at Family Fertility Center (Baylor College of Medicine, Houston, TX, United States) following methods previously established ([Breckwoldt et al., 1996]; [Amsterdam et al., 2003]). Institutional review board approval and informed consent from the patients were obtained before collecting the follicular fluid samples. In brief, red blood cells (RBCs) in the follicular aspirate were lyzed using RBC lysis buffer (Quality Biological Inc., Gaithersburg, MD, United States), and washed extensively with PBS and DMEM/F12 containing 5% FBS, fungizone, and the antibiotics penicillin (100 IU/ml) and streptomycin (100 μg/ml). Subsequently, cells from the aspirate were plated in T75 flasks, cultured for 7 days with fresh media being replaced every other day. At the end of the culture period, cells were released from the flask by trypsin and transferred to 96-well plates (5,000 cells/well, Greiner Bio-One). Following 48 h of culture, media in culture wells was replaced with serum free media containing 0.1% BSA and 10^−7 M androstenedione. Following 24 h of serum starvation, cells were stimulated with fresh media (0.1% BSA, 10^−7 M androstenedione) with FSH or compound for 48 h. Supernatant was collected and stored at −80C for determination of estradiol by ELISA."}, "[9]": {"target": "T3, hTSHR (Homo sapiens, UniProt P16473)", "T3 construct": "expressed in transfected cells", "T3 sequence (P16473 21-764)": "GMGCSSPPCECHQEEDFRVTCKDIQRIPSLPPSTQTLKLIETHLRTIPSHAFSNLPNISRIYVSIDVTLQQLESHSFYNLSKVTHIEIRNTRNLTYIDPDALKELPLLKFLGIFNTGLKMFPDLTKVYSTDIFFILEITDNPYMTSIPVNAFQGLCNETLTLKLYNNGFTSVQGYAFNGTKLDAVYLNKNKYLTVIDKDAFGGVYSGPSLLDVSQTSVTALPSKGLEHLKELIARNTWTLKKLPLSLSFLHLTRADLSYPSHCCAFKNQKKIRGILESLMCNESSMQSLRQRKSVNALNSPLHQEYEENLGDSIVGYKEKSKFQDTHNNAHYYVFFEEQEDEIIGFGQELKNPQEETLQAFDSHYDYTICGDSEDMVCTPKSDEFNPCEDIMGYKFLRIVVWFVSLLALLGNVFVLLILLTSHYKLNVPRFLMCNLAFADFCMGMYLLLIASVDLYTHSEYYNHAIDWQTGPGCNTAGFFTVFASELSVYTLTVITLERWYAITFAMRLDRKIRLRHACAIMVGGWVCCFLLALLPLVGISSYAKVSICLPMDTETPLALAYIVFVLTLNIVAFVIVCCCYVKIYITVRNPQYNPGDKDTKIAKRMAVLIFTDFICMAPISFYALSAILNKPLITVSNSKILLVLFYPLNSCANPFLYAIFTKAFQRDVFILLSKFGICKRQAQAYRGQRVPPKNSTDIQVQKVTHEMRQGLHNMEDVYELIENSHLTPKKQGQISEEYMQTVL", "test": "cAMP (HTRF) in CHO cells transfected with hTSHR", "type": "cell-based", "conditions": "for Ratio of EC50 TSHR/FSHR: CHO assays; for EC50: compounds in presence of EC20 ligand (Figure 1 legend); for EC50 / % Response, CHO-hTSHR: mean ± SEM; for % Response, CHO-hTSHR: maximal cAMP vs maximal response of TSH", "method": "as §1"}}}
{"smiles": "COc1cc(C(N)=O)cc(-c2cc3c(cc2OC)OCc2c(C(=O)N(C)C(C)(C)C)nn(-c4cc(Cl)cc(Cl)c4)c2-3)n1", "note": "[TOP5668]", "values": [{"measurement": "Clint, dog", "setting": "[1]", "result": 44, "unit": "µl/min/mg protein"}, {"measurement": "Clint, monkey", "setting": "[2]", "result": 117, "unit": "µl/min/mg protein"}, {"measurement": "Clint, mice", "setting": "[3]", "result": 10, "unit": "µl/min/mg protein"}, {"measurement": "Ratio of EC50 LHR/FSHR", "setting": "[4]; CHO assays", "result": 80}, {"measurement": "EC50", "setting": "[4]", "result": 176, "unit": "nM"}, {"measurement": "% Response, CHO-hLH/CGR", "setting": "[4]", "result": "96.64 ± 0.61", "unit": "%"}, {"measurement": "fold more potent than TOP5300 in hFSHR-AA activity", "setting": "[5]; CHO-hFSHR", "result": "3-4 fold"}, {"measurement": "EC50", "setting": "[5]", "result": 2.2, "unit": "nM"}, {"measurement": "% Response, CHO-hFSHR", "setting": "[5]", "result": "100.75 ± 0.51", "unit": "%"}, {"measurement": "testosterone production from cultured rat Leydig cells", "setting": "[6]", "result": "very little activity"}, {"measurement": "CYP TDI (3A4)", "setting": "[7]", "result": "Negative"}, {"measurement": "fold more potent than TOP5300, 17β-estradiol production", "setting": "[8]; pooled cells from two patients (Figure 4A)", "result": 30, "unit": "fold"}, {"measurement": "EC50", "setting": "[8]", "result": 15, "unit": "nM"}, {"measurement": "fold greater maximal estradiol response than rec-hFSH", "setting": "[8]; pooled human granulosa cells, second culture (Figure 4B)", "result": "approximately 7 fold"}, {"measurement": "potency shift to the left of TOP5300", "setting": "[8]; second culture, pooled cells from three patients (Figure 4B)", "result": "~100", "unit": "fold"}, {"measurement": "maximal 17β-estradiol response", "setting": "[8]; second culture", "result": 200, "unit": "ng/mL"}, {"measurement": "Ratio of EC50 TSHR/FSHR", "setting": "[9]", "result": 77}, {"measurement": "EC50", "setting": "[9]", "result": 170, "unit": "nM"}, {"measurement": "% Response, CHO-hTSHR", "setting": "[9]", "result": "92.28 ± 0.88", "unit": "%"}]}
{"smiles": "COc1cc2c(cc1-c1cnn(CCO)c1)-c1c(c(C(=O)N(C)C(C)(C)C)nn1-c1cc(Cl)cc(Cl)c1)CO2", "note": "[TOP5300]", "values": [{"measurement": "Clint, dog", "setting": "[1]", "result": 37, "unit": "µl/min/mg protein"}, {"measurement": "Clint, monkey", "setting": "[2]", "result": 165, "unit": "µl/min/mg protein"}, {"measurement": "Clint, mice", "setting": "[3]", "result": 19, "unit": "µl/min/mg protein"}, {"measurement": "EC50", "setting": "[4]", "result": 56.7, "unit": "nM"}, {"measurement": "% Response, CHO-hLH/CGR", "setting": "[4]", "result": "95.68 ± 0.37", "unit": "%"}, {"measurement": "EC50", "setting": "[5]", "result": 9.72, "unit": "nM"}, {"measurement": "% Response, CHO-hFSHR", "setting": "[5]", "result": "98.4 ± 0.31", "unit": "%"}, {"measurement": "testosterone production from cultured rat Leydig cells", "setting": "[6]", "result": "stimulated concentration-dependent increases in testosterone production"}, {"measurement": "CYP TDI (3A4)", "setting": "[7]", "result": "Negative"}, {"measurement": "EC50", "setting": "[8]", "result": 474, "unit": "nM"}, {"measurement": "maximal 17β-estradiol response", "setting": "[8]; second culture", "result": 200, "unit": "ng/mL"}, {"measurement": "Ratio of EC50 TSHR/FSHR", "setting": "[9]", "result": 52}, {"measurement": "EC50", "setting": "[9]", "result": 505, "unit": "nM"}, {"measurement": "% Response, CHO-hTSHR", "setting": "[9]", "result": "84.97 ± 0.85", "unit": "%"}]}
